Key:
CDK2/cyclinE1 complex = CDK2/cyclinE1 complex (Homo sapiens, UniProt P24941); assay: In-vitro enzymatic inhibitory activity testing, CDK2 inhibition assay (Caliper EZ Reader II); format: biochemical; conditions: CDK2/cyclinE1 0.5 nM, 180 min at 27° C.
In short: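 CDK2/cyclinE1 (0.5 nM) phosphorylated 5-FAM-CDK7tide (2 μM) in MES buffer pH 6.5 with MgCl2, Tween 20 and BSA. Substrate and product were separated electrophoretically on a Caliper EZ Reader II. IC50 values came from nonlinear dose-response fits.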

[1] = Caco-2 membrane permeability and efflux rate; format: in vitro ADME; conditions: human, Caco-2, Caco-2, 5 μM; for Papp B→A at 2 h, 5 μM: basal end to top end; for efflux ratio at 2 h, 5 μM: read-out: ER (efflux rate); for Papp A→B at 2 h, 5 μM: top end to basal end
Protocol: The recovered Caco-2 cell suspension was seeded into a […] plate and cultured for 14-18 days. After being cultured for 14 days, the cells were fused and differentiated to be ready for a transport experiment. The Caco-2 cell plate was taken out from the incubator. Stock solutions of a to-be-tested compound and a control compound were formulated with DMSO and diluted with an HBSS (10 mM HEPES, pH 7.4) buffer to a final concentration of 5 μM. A test compound solution and a control drug solution were added to each well (top end) of an insert culture plate, and the HBSS (10 mM HEPES, pH 7.4) buffer was added to each well of a test compound receiving plate (basal end). When measuring the transport rate of the compound from the basal end to the top end, the test compound solution and the control drug solution were added to each well of the receiving plate (basal end), the HBSS (10 mM HEPES, pH 7.4) buffer solution was added to each well (top end) of the insert culture plate for the test compound solution, and incubation was carried out for 2 hours in a CO2 incubator at 37° C. After the transport experiment was completed, vortexing was carried out for 10 minutes at 1000 rpm. After sample quenching at each time point, LC/MS/MS analysis was carried out. A fluorescence value was measured after a two-hour transport experiment, a lucifer yellow solution was added in a transwell chamber (top end), a transport buffer solution was added in the basal end, and incubation was carried out for 30 minutes in the CO2 incubator at 37° C. The solution was taken out directly from the top end and the basal end (using basolateral wells) and transferred to a new 96-well plate. A cell fluorescence value was measured by a microplate reader (to detect membrane integrity), an excitation wavelength was […], and an emission wavelength was […]. All data were calculated by using Microsoft Excel, and a peak area was calculated according to chromatograms. An apparent permeability coefficient (Papp, unit: 10-6, cm/s) and an efflux rate (ER) of the compounds in Caco-2 cells were calculated by the specific concentrations of a receiving end and an administering end.

[2] = tested on: human breast cancer cells HCC70; assay: Cell biological activity detection (CyQuant, 72 hours), HCC70; format: cell-based; conditions: Homo sapiens, HCC70, 72 h, incubation for 72 hours
In short: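 IC50 derived from CyQuant Direct nuclear staining (488 nm excitation) after 72 h compound exposure at 37 °C, 5% CO2. Compounds tested in 9 concentrations from 10 μM, 1:4 steps, 0.2% DMSO, on A2780 or HCC70 cells plated overnight at 2000/well in RPMI 1640 + 10% FBS.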

| Compound | IC50 (CDK2/cyclinE1 complex) [nM] | Papp B→A at 2 h, 5 μM [1] [×10⁻⁶ cm/s] | efflux ratio at 2 h, 5 μM [1] | Papp A→B at 2 h, 5 μM [1] [×10⁻⁶ cm/s] | IC50 [2] [nM] |
| --- | --- | --- | --- | --- | --- |
| C[C@@H](CO)Nc1ncc(Cl)c(-c2c[nH]c3c(P(C)(C)=O)cccc23)n1 [Compound 103, (S)-(3-(5-chloro-2-((1-hydroxypropan-2-yl)amino)pyrimidin-4-yl)-1H-indole-7-yl)dimethylphosphine oxide] | 200 to 5000 | 36.1 | 5.38 | 6.7 | 20 to 200 |
| CN(C)[C@H]1CC[C@H](Nc2ncc(C(F)(F)F)c(-c3c[nH]c4c(P(C)(C)=O)cccc34)n2)C1 [Compound 137, (3-(2-(((1S,3S)-3-(dimethylamino)cyclopentyl)amino)-5-(trifluoromethyl)pyrimidin-4-yl)-1H-indole-7-yl)dimethylphosphine oxide] | 200 to 5000 | 34.6 | 12.4 | 2.79 | < 20 |
| C[C@@H](CO)Nc1ncc(C(F)(F)F)c(-c2c[nH]c3c(P(C)(C)=O)cc(F)cc23)n1 [Compound 158] | 200 to 5000 | 28.6 | 5.65 | 5.07 | < 20 |
| CP(C)(=O)c1cccc2c(-c3nc(NC4(CO)CCC4)ncc3C(F)(F)F)c[nH]c12 [Compound 168, (3-(2-((1-(hydroxymethyl)cyclobutyl)amino)-5-(trifluoromethyl)pyrimidin-4-yl)-1H-indole-7-yl)dimethylphosphine oxide] | 5000 to 50000 | 17.1 | 2.14 | 7.99 | 20 to 200 |
| CP(C)(=O)c1cccc2c(-c3nc(NC45CC(O)(C4)C5)ncc3C(F)(F)F)c[nH]c12 [Compound 174, (3-(2-((3-hydroxybicyclo[1.1.1]pentan-1-yl)amino)-5-(trifluoromethyl)pyrimidin-4-yl)-1H-indole-7-yl)dimethylphosphine oxide] | 200 to 5000 | 34.8 | 17.1 | 2.03 | < 20 |
| C[C@@H](CO)Nc1ncc(C#N)c(-c2c[nH]c3c(P(C)(C)=O)cccc23)n1 [Compound 179, (S)-4-(7-(dimethylphosphoryl)-1H-indole-3-yl)-2-((1-hydroxypropan-2-yl)amino)pyrimidine-5-carbonitrile] | 200 to 5000 | 33.5 | 65.9 | 0.51 | 20 to 200 |
| C[C@@H](CO)Nc1ncc(C(F)(F)F)c(-c2c[nH]c3c(P(C)(C)=O)c(F)ccc23)n1 [Compound 195] | 200 to 5000 | 24.4 | 2.36 | 10.3 | < 20 |

Now from value to compound, other results behind:

| IC50 (CDK2/cyclinE1 complex) [nM] | Papp B→A at 2 h, 5 μM [1] [×10⁻⁶ cm/s] | efflux ratio at 2 h, 5 μM [1] | Papp A→B at 2 h, 5 μM [1] [×10⁻⁶ cm/s] | Compound | IC50 [2] [nM] |
| --- | --- | --- | --- | --- | --- |
| 5000 to 50000 | 26.8 | 7.8 | 3.43 | CP(C)(=O)c1cccc2c(-c3nc(NCC(F)(F)CO)ncc3C(F)(F)F)c[nH]c12 [Compound 102, (3-(2-((2,2-difluoro-3-hydroxypropyl)amino)-5-(trifluoromethyl)pyrimidin-4-yl)-1H-indole-7-yl)dimethylphosphine oxide] | < 20 |
| 5000 to 50000 | 21.9 | 7.32 | 2.99 | CP(C)(=O)c1cccc2c(-c3nc(NC4(CO)CC(F)C4)ncc3C(F)(F)F)c[nH]c12 (centres unmarked) [Compound 105, (3-(2-((3-fluoro-1-(hydroxymethyl)cyclobutyl)amino)-5-(trifluoromethyl)pyrimidin-4-yl)-1H-indole-7-yl)dimethylphosphine oxide] | 20 to 200 |
| 200 to 5000 | 25.4 | 31.9 | 0.8 | CP(C)(=O)c1cccc2c(-c3nc(NC4(CO)COC4)ncc3C(F)(F)F)c[nH]c12 [Compound 114, (3-(2-((3-(hydroxymethyl)oxetan-3-yl)amino)-5-(trifluoromethyl)pyrimidin-4-yl)-1H-indole-7-yl)dimethylphosphine oxide] | < 20 |
| 200 to 5000 | 24.6 | 7.41 | 3.32 | CP(C)(=O)c1cccc2c(-c3nc(NCC4CC(O)C4)ncc3C(F)(F)F)c[nH]c12 (centres unmarked) [Compound 126, (3-(2-(((3-hydroxycyclobutyl)methyl)amino)-5-(trifluoromethyl)pyrimidin-4-yl)-1H-indole-7-yl)dimethylphosphine oxide] | 20 to 200 |
| 200 to 5000 | 22.4 | 5.86 | 3.82 | CP(C)(=O)c1cccc2c(-c3nc(NC[C@H]4C[C@](C)(O)C4)ncc3C(F)(F)F)c[nH]c12 [Compound 127, (3-(2-(((trans-3-hydroxy-3-methylcyclobutyl)methyl)amino)-5-(trifluoromethyl)pyrimidin-4-yl)-1H-indole-7-yl)dimethylphosphine oxide] | < 20 |
| 200 to 5000 | 24.8 | 5.94 | 4.17 | CP(C)(=O)c1cccc2c(-c3nc(N[C@@H]4CC[C@H]4O)ncc3C(F)(F)F)c[nH]c12 [Compound 153, (3-(2-(((1R,2R)-2-hydroxycyclobutyl)amino)-5-(trifluoromethyl)pyrimidin-4-yl)-1hydro-indole-7-yl)dimethylphosphine oxide] | < 20 |
| 200 to 5000 | 26.4 | 5.97 | 4.42 | CP(C)(=O)c1cccc2c(-c3nc(N[C@H]4CC[C@@H]4O)ncc3C(F)(F)F)c[nH]c12 [Compound 154, (3-(2-(((1S,2S)-2-hydroxycyclobutyl)amino)-5-(trifluoromethyl)pyrimidin-4-yl)-1hydro-indole-7-yl)dimethylphosphine oxide] | < 20 |
| 200 to 5000 | 24 | 4.31 | 5.57 | CP(C)(=O)c1cccc2c(-c3nc(N[C@H]4CCC[C@@H]4O)ncc3C(F)(F)F)c[nH]c12 [Compound 155, (3-(2-(((1S,2S)-2-hydroxycyclopentyl)amino)-5-(trifluoromethyl)pyrimidin-4-yl)-1hydro-indole-7-yl)dimethylphosphine oxide] | < 20 |
| 5000 to 50000 | 20.6 | 3.87 | 5.32 | CP(C)(=O)c1cccc2c(-c3nc(N[C@@H]4CCC[C@H]4O)ncc3C(F)(F)F)c[nH]c12 [Compound 156] | < 20 |

Reference: patent US20240124504A1, “AROMATIC HETEROCYCLIC COMPOUND, AND PHARMACEUTICAL COMPOSITION AND APPLICATION THEREOF” (GT APEIRON THERAPEUTICS LIMITED, priority 2020, published 2024)
